These results are taken from PMC5218480 (PLoS ONE, 2017).

The assay concerns MV-4-11 cells. The experiment in a line: Gene expression microarray analysis (Affymetrix PrimeView) and GSEA. Also noted: RFU PODN (11730768_x_at) / Fold change /veh PODN (11730768_x_at) / RFU LINC00158 (11744669_a_at) / Fold change /veh LINC00158 (11744669_a_at) / RFU DUSP10 (11751237_a_at) / Fold change /veh DUSP10 (11751237_a_at) / RFU ID3 (11757404_x_at) / Fold change /veh ID3 (11757404_x_at) / RFU PLEKHG5 (11737974_s_at) / Fold change /veh PLEKHG5 (11737974_s_at) / RFU LRRC4B (11730491_at) / Fold change /veh LRRC4B (11730491_at) / RFU GIMAP4 (11747438_a_at) / Fold change /veh GIMAP4 (11747438_a_at) / RFU KRT8 (11758183_x_at) / Fold change /veh KRT8 (11758183_x_at) / RFU CNN1 (11734310_a_at) / Fold change /veh CNN1 (11734310_a_at) / RFU VPS37D (11726825_at) / Fold change /veh VPS37D (11726825_at) / RFU C10orf10 (11716522_x_at) / Fold change /veh C10orf10 (11716522_x_at) / RFU KIR2DL2 /// KIR2DL4 /// KIR2DL5A /// KIR2DL5B /// KIR2DS1 /// KIR2DS2 /// KIR2DS3 /// KIR2DS4 /// KIR3DL3 /// KIR3DL3 /// KIR3DS1 (11738374_at) / Fold change /veh KIR2DL2 /// KIR2DL4 /// KIR2DL5A /// KIR2DL5B /// KIR2DS1 /// KIR2DS2 /// KIR2DS3 /// KIR2DS4 /// KIR3DL3 /// KIR3DL3 /// KIR3DS1 (11738374_at) / RFU C1QL1 (11718748_at) / Fold change /veh C1QL1 (11718748_at) / RFU TMPRSS4 (11747572_a_at) / Fold change /veh TMPRSS4 (11747572_a_at) / RFU HAMP (11756126_x_at) / Fold change /veh HAMP (11756126_x_at) / RFU RNFT2 (11725882_a_at) / Fold change /veh RNFT2 (11725882_a_at) / RFU NR4A2 (11747474_a_at) / Fold change /veh NR4A2 (11747474_a_at) / RFU ABCC12 (11746883_a_at) / Fold change /veh ABCC12 (11746883_a_at) / RFU TMEM136 (11760407_x_at) / Fold change /veh TMEM136 (11760407_x_at) / RFU CLDN22 /// WWC2 (11732394_at) / Fold change /veh CLDN22 /// WWC2 (11732394_at) / RFU HLA-DPB1 (11760878_x_at) / Fold change /veh HLA-DPB1 (11760878_x_at) / RFU SPINT1 (11716480_a_at) / Fold change /veh SPINT1 (11716480_a_at) / RFU GAP43 (11754022_s_at) / Fold change /veh GAP43 (11754022_s_at) / RFU A4GNT (11735810_at) / Fold change /veh A4GNT (11735810_at) / RFU PRB3 (11715151_x_at) / Fold change /veh PRB3 (11715151_x_at) / RFU TUBB4B (11761932_at) / Fold change /veh TUBB4B (11761932_at) / RFU CAPN14 (11732068_a_at) / Fold change /veh CAPN14 (11732068_a_at) / RFU TMCC2 (11721928_a_at) / Fold change /veh TMCC2 (11721928_a_at) / RFU IRGQ (11745062_a_at) / Fold change /veh IRGQ (11745062_a_at) / RFU FAM174B (11720279_a_at) / Fold change /veh FAM174B (11720279_a_at) / RFU TMPRSS4 (11748680_a_at) / Fold change /veh TMPRSS4 (11748680_a_at) / RFU FAM212B (11763350_a_at) / Fold change /veh FAM212B (11763350_a_at) / RFU PLEKHG5 (11743358_a_at) / Fold change /veh PLEKHG5 (11743358_a_at) / RFU ZSCAN30 (11745921_a_at) / Fold change /veh ZSCAN30 (11745921_a_at) / RFU CMKLR1 (11741424_a_at) / Fold change /veh CMKLR1 (11741424_a_at) / RFU LOC101060620 /// MAPK8IP1 (11723275_at) / Fold change /veh LOC101060620 /// MAPK8IP1 (11723275_at) / RFU SPTSSB (11747773_x_at) / Fold change /veh SPTSSB (11747773_x_at) / RFU PRSS12 (11739890_at) / Fold change /veh PRSS12 (11739890_at) / RFU BIN1 (11741810_x_at) / Fold change /veh BIN1 (11741810_x_at) / RFU WNT11 (11732464_a_at) / Fold change /veh WNT11 (11732464_a_at) / RFU C10orf10 (11716521_a_at) / Fold change /veh C10orf10 (11716521_a_at) / RFU C5orf56 (11738089_at) / Fold change /veh C5orf56 (11738089_at) / RFU CYB561 (11721691_x_at) / Fold change /veh CYB561 (11721691_x_at) / RFU ANKRD19P (11752326_a_at) / Fold change /veh ANKRD19P (11752326_a_at) / RFU OR2T12 /// OR2T33 /// OR2T8 (11738714_s_at) / Fold change /veh OR2T12 /// OR2T33 /// OR2T8 (11738714_s_at) / RFU VCAN (11748164_a_at) / Fold change /veh VCAN (11748164_a_at) / RFU JSRP1 (11732532_at) / Fold change /veh JSRP1 (11732532_at) / RFU KRTAP10-11 (11738290_x_at) / Fold change /veh KRTAP10-11 (11738290_x_at) / RFU MYO3A (11730013_a_at) / Fold change /veh MYO3A (11730013_a_at) / RFU EBF3 (11725865_a_at) / Fold change /veh EBF3 (11725865_a_at) / RFU CAMK2N1 (11719241_x_at) / Fold change /veh CAMK2N1 (11719241_x_at) / RFU C5orf56 (11738088_a_at) / Fold change /veh C5orf56 (11738088_a_at) / RFU OLFML3 (11715873_a_at) / Fold change /veh OLFML3 (11715873_a_at) / RFU LOC100653217 /// NTM (11731650_a_at) / Fold change /veh LOC100653217 /// NTM (11731650_a_at) / RFU MAPK11 (11762145_a_at) / Fold change /veh MAPK11 (11762145_a_at) / RFU FIZ1 (11724087_x_at) / Fold change /veh FIZ1 (11724087_x_at) / RFU OASL (11726364_x_at) / Fold change /veh OASL (11726364_x_at) / RFU SOX15 (11748057_x_at) / Fold change /veh SOX15 (11748057_x_at) / RFU CD79A (11719716_a_at) / Fold change /veh CD79A (11719716_a_at) / RFU HIST1H1D (11736915_at) / Fold change /veh HIST1H1D (11736915_at) / RFU CASKIN2 (11723855_a_at) / Fold change /veh CASKIN2 (11723855_a_at) / RFU LOC730098 (11760151_x_at) / Fold change /veh LOC730098 (11760151_x_at) / RFU OR4N2 (11742367_at) / Fold change /veh OR4N2 (11742367_at) / RFU PRRT2 (11749266_a_at) / Fold change /veh PRRT2 (11749266_a_at) / RFU SNX32 (11753110_a_at) / Fold change /veh SNX32 (11753110_a_at) / RFU CDHR5 (11726645_a_at) / Fold change /veh CDHR5 (11726645_a_at) / RFU RCAN1 (11760418_a_at) / Fold change /veh RCAN1 (11760418_a_at) / RFU FAM167A (11723789_a_at) / Fold change /veh FAM167A (11723789_a_at) / RFU FAM26E (11764081_at) / Fold change /veh FAM26E (11764081_at) / RFU ISYNA1 (11749810_s_at) / Fold change /veh ISYNA1 (11749810_s_at) / RFU ACY1 (11761880_at) / Fold change /veh ACY1 (11761880_at) / RFU 11764098_at / Fold change /veh 11764098_at / RFU SAMD14 (11745864_x_at) / Fold change /veh SAMD14 (11745864_x_at) / RFU NPB (11741838_a_at) / Fold change /veh NPB (11741838_a_at) / RFU TMPRSS6 (11731388_a_at) / Fold change /veh TMPRSS6 (11731388_a_at) / RFU KRTAP10-2 (11738614_at) / Fold change /veh KRTAP10-2 (11738614_at) / RFU ARHGAP8 /// PRR5-ARHGAP8 (11727945_x_at) / Fold change /veh ARHGAP8 /// PRR5-ARHGAP8 (11727945_x_at) / RFU KRTAP5-7 /// NADSYN1 (11734609_at) / Fold change /veh KRTAP5-7 /// NADSYN1 (11734609_at) / RFU RASL12 (11751679_a_at) / Fold change /veh RASL12 (11751679_a_at) / RFU CDKN2B (11736163_a_at) / Fold change /veh CDKN2B (11736163_a_at) / RFU PRF1 (11729649_at) / Fold change /veh PRF1 (11729649_at) / RFU, ZNF638 /// ZNF638-IT1 / Fold change vs veh, ZNF638 /// ZNF638-IT1 / RFU, PANK3 / Fold change vs veh, PANK3 / RFU, SH3YL1 / Fold change vs veh, SH3YL1 / RFU, ZEB2 / Fold change vs veh, ZEB2 / RFU, NRIP1 / Fold change vs veh, NRIP1 / RFU, PTTG1IP / Fold change vs veh, PTTG1IP / RFU, CAPN2 / Fold change vs veh, CAPN2 / RFU, MED14 / Fold change vs veh, MED14 / RFU, SNORA58 / Fold change vs veh, SNORA58 / RFU, C1orf63 / Fold change vs veh, C1orf63 / RFU, LRRFIP1 / Fold change vs veh, LRRFIP1 / RFU, NDUFAF7 / Fold change vs veh, NDUFAF7 / RFU, SLC12A2 / Fold change vs veh, SLC12A2 / RFU, IBTK / Fold change vs veh, IBTK / RFU, ESF1 / Fold change vs veh, ESF1 / Fold change vs veh, TMEM50B / RFU, TAOK1 / Fold change vs veh, TAOK1 / RFU, ACBD3 / Fold change vs veh, ACBD3 / RFU, TMA16 / Fold change vs veh, TMA16 / RFU, RWDD3 / Fold change vs veh, RWDD3 / RFU, BCAT1 / Fold change vs veh, BCAT1 / RFU, EDEM3 / Fold change vs veh, EDEM3 / RFU, TMEM33 / Fold change vs veh, TMEM33 / RFU, WDR75 / Fold change vs veh, WDR75 / RFU, AHCTF1 / Fold change vs veh, AHCTF1 / RFU, TFRC / Fold change vs veh, TFRC / RFU, ZDHHC17 / Fold change vs veh, ZDHHC17 / RFU, NOM1 / Fold change vs veh, NOM1 / RFU, ARL8B / Fold change vs veh, ARL8B / RFU, ZBTB11 / Fold change vs veh, ZBTB11 / RFU, TAMM41 / Fold change vs veh, TAMM41 / RFU, KIAA1704 /// LOC100996395 / Fold change vs veh, KIAA1704 /// LOC100996395 / RFU, ING1 / Fold change vs veh, ING1 / RFU, TRMT61B / Fold change vs veh, TRMT61B / RFU, FUBP3 / Fold change vs veh, FUBP3 / RFU, TP53 / Fold change vs veh, TP53 / RFU, TNKS2 / Fold change vs veh, TNKS2 / RFU, ZFP14 / Fold change vs veh, ZFP14 / RFU, ACTR2 / Fold change vs veh, ACTR2 / RFU, PPP3R1 / Fold change vs veh, PPP3R1 / RFU, PIK3R1 / Fold change vs veh, PIK3R1 / RFU, HNRNPA1 / Fold change vs veh, HNRNPA1 / RFU, RNF170 / Fold change vs veh, RNF170 / RFU, ZNF28 / Fold change vs veh, ZNF28 / RFU, RNGTT / Fold change vs veh, RNGTT / RFU, OGT / Fold change vs veh, OGT / RFU, BRD1 / Fold change vs veh, BRD1 / RFU, MARS / Fold change vs veh, MARS / RFU, ZNF655 / Fold change vs veh, ZNF655 / RFU, FAHD1 / Fold change vs veh, FAHD1 / RFU, BDP1 / Fold change vs veh, BDP1 / RFU, LRRCC1 / Fold change vs veh, LRRCC1 / RFU, ARID1A / Fold change vs veh, ARID1A / RFU, ZNF146 / Fold change vs veh, ZNF146 / RFU, ZNF330 / Fold change vs veh, ZNF330 / RFU, GPN3 / Fold change vs veh, GPN3 / RFU, C9orf123 / Fold change vs veh, C9orf123 / RFU, N4BP2L2 / Fold change vs veh, N4BP2L2 / RFU, ARFIP1 / Fold change vs veh, ARFIP1 / RFU, FAM179B / Fold change vs veh, FAM179B / RFU, BCL10 / Fold change vs veh, BCL10 / RFU, UHRF1BP1L / Fold change vs veh, UHRF1BP1L / RFU, BET1 / Fold change vs veh, BET1 / RFU, CNOT2 / Fold change vs veh, CNOT2 / RFU, ZNF268 / Fold change vs veh, ZNF268 / Fold change vs veh, ZNF507 / RFU, DGCR2 / Fold change vs veh, DGCR2 / RFU, WDSUB1 / Fold change vs veh, WDSUB1 / Fold change vs veh, HSP90B1 /// MIR3652 / RFU, ADSS / Fold change vs veh, ADSS / RFU, GK / Fold change vs veh, GK / RFU, ZNF148 / Fold change vs veh, ZNF148 / RFU, TAF9 / Fold change vs veh, TAF9 / RFU, SLC1A5 / Fold change vs veh, SLC1A5 / RFU, SLMO2 / Fold change vs veh, SLMO2 / RFU, ABCC4 / Fold change vs veh, ABCC4 / RFU, LOC101060439 /// RAP1B / Fold change vs veh, LOC101060439 /// RAP1B / RFU, RFX7 / Fold change vs veh, RFX7 / RFU, GTPBP10 / Fold change vs veh, GTPBP10 / RFU, CNEP1R1 / Fold change vs veh, CNEP1R1 / RFU, BIVM-ERCC5 /// ERCC5 / Fold change vs veh, BIVM-ERCC5 /// ERCC5 / RFU, ILF3 / Fold change vs veh, ILF3 / RFU 11762660_at / Fold change /veh 11762660_at / RFU VCAN (11757783_s_at) / Fold change /veh VCAN (11757783_s_at) / RFU DDX43 (11728927_at) / Fold change /veh DDX43 (11728927_at) / RFU KRT8 (11758188_x_at) / Fold change /veh KRT8 (11758188_x_at) / RFU NKD1 (11759106_at) / Fold change /veh NKD1 (11759106_at) / RFU SRD5A1 (11742802_a_at) / Fold change /veh SRD5A1 (11742802_a_at) / RFU TPSAB1 /// TPSB2 (11721975_s_at) / Fold change /veh TPSAB1 /// TPSB2 (11721975_s_at) / RFU GSTM3 (11746129_a_at) / Fold change /veh GSTM3 (11746129_a_at) / RFU IL23R (11737362_x_at) / Fold change /veh IL23R (11737362_x_at) / RFU TMEM51 (11727254_a_at) / Fold change /veh TMEM51 (11727254_a_at) / RFU PIWIL2 (11732686_x_at) / Fold change /veh PIWIL2 (11732686_x_at) / RFU ORM1 (11744905_x_at) / Fold change /veh ORM1 (11744905_x_at) / RFU CCDC152 (11743942_at) / Fold change /veh CCDC152 (11743942_at) / RFU ECM1 (11717891_a_at) / Fold change /veh ECM1 (11717891_a_at) / RFU IL23R (11748794_a_at) / Fold change /veh IL23R (11748794_a_at) / RFU TNFAIP8L3 (11732012_x_at) / Fold change /veh TNFAIP8L3 (11732012_x_at) / RFU MBOAT4 (11741988_at) / Fold change /veh MBOAT4 (11741988_at) / RFU 11764193_at / Fold change /veh 11764193_at / RFU TMEM53 (11763286_at) / Fold change /veh TMEM53 (11763286_at) / RFU MAGEB2 (11727129_at) / Fold change /veh MAGEB2 (11727129_at) / RFU TMEM200A (11744735_a_at) / Fold change /veh TMEM200A (11744735_a_at) / RFU CCDC152 (11751479_a_at) / Fold change /veh CCDC152 (11751479_a_at) / RFU FAM211A (11726209_a_at) / Fold change /veh FAM211A (11726209_a_at) / RFU RGS16 (11746705_a_at) / Fold change /veh RGS16 (11746705_a_at) / RFU VCAN (11755009_s_at) / Fold change /veh VCAN (11755009_s_at) / RFU RHOB (11743442_s_at) / Fold change /veh RHOB (11743442_s_at) / RFU RGS16 (11720943_a_at) / Fold change /veh RGS16 (11720943_a_at) / RFU RGS16 (11720944_at) / Fold change /veh RGS16 (11720944_at) / RFU, VPS4B / Fold change vs veh, VPS4B / RFU, CREB1 / Fold change vs veh, CREB1 / RFU, DNAJC13 / Fold change vs veh, DNAJC13 / RFU, GNAQ / Fold change vs veh, GNAQ / RFU, CDK5R1 / Fold change vs veh, CDK5R1 / RFU, ZRANB3 / Fold change vs veh, ZRANB3 / RFU, CUL4A / Fold change vs veh, CUL4A / RFU, CCNY / Fold change vs veh, CCNY / RFU, UFL1 / Fold change vs veh, UFL1 / RFU, COG3 / Fold change vs veh, COG3 / RFU, DIAPH2 / Fold change vs veh, DIAPH2 / RFU, SKA2 / Fold change vs veh, SKA2 / RFU, AFF3 / Fold change vs veh, AFF3 / RFU, LMF1 / Fold change vs veh, LMF1 / RFU, IPO11 / Fold change vs veh, IPO11 / RFU, DFFB / Fold change vs veh, DFFB / RFU, FOXP1 / Fold change vs veh, FOXP1 / RFU, CARD8 / Fold change vs veh, CARD8 / RFU, STRN3 / Fold change vs veh, STRN3 / RFU, ADK / Fold change vs veh, ADK / RFU, RASSF2 / Fold change vs veh, RASSF2 / RFU, WIPF1 / Fold change vs veh, WIPF1 / RFU, LARP1B / Fold change vs veh, LARP1B / RFU, RASA1 / Fold change vs veh, RASA1 / RFU, RB1 / Fold change vs veh, RB1 / RFU, PPFIA1 / Fold change vs veh, PPFIA1 / RFU, MAT2A / Fold change vs veh, MAT2A / RFU, CCT5 / Fold change vs veh, CCT5 / RFU, WDR92 / Fold change vs veh, WDR92 / RFU, CUX1 / Fold change vs veh, CUX1 / RFU, TTC7A / Fold change vs veh, TTC7A / RFU, TMEM135 / Fold change vs veh, TMEM135 / RFU, DEPTOR / Fold change vs veh, DEPTOR / RFU, CPM / Fold change vs veh, CPM / RFU, DNAJB6 / Fold change vs veh, DNAJB6 / RFU, CACNA2D3 / Fold change vs veh, CACNA2D3 / RFU, DTX4 / Fold change vs veh, DTX4 / RFU, TFCP2 / Fold change vs veh, TFCP2 / RFU, GMCL1 /// GMCL1P1 / Fold change vs veh, GMCL1 /// GMCL1P1 / RFU, AEBP2 / Fold change vs veh, AEBP2 / RFU, SNHG1 /// SNORD22 /// SNORD25 /// SNORD26 /// SNORD27 /// SNORD28 /// SNORD29 /// SNORD31 / Fold change vs veh, SNHG1 /// SNORD22 /// SNORD25 /// SNORD26 /// SNORD27 /// SNORD28 /// SNORD29 /// SNORD31 / Fold change (Aza/veh), C12orf56 (ProbeSet 11735607_a_at) / Fold change (ACY-1035/veh), C12orf56 (ProbeSet 11735607_a_at) / Fold change (Aza/veh), FGFR1OP (ProbeSet 11751329_s_at) / Fold change (ACY-1035/veh), FGFR1OP (ProbeSet 11751329_s_at) / Fold change (Aza/veh), VPS36 (ProbeSet 11739960_a_at) / Fold change (ACY-1035/veh), VPS36 (ProbeSet 11739960_a_at) / RFU SYPL1 (11715823_x_at) / Fold change /veh SYPL1 (11715823_x_at) / RFU IGFBP7 (11715501_s_at) / Fold change /veh IGFBP7 (11715501_s_at) / RFU REEP3 (11722064_at) / Fold change /veh REEP3 (11722064_at) / RFU IGLL1 (11728026_x_at) / Fold change /veh IGLL1 (11728026_x_at): dose or concentration left out as unconfirmed. In kind it is cell-based, human. Particulars: ProbeSet 11745428_a_at; LIST D.

On to `Nc1ccc(-c2cccs2)cc1NC(=O)c1ccc2c(c1)cc(C1CC1)n2CCN1CCOCC1` [ACY-1035], for which the “RFU, DFFB” value came to 104.10 RFU.
